The source of these data is article PMC3885546, “Structural Determinants of the 5′-Methylthioinosine Specificity of Plasmodium Purine Nucleoside Phosphorylase” (PLoS ONE, 2014).

Residue numbers refer to the chain shown, from its start.

Assay in all cases: Substrate kinetics, coupled assay
Holding throughout (type): biochemical
What all share (details): for Km / kcat: substrate = label

The target of one test is T1, PfPNP Tyr160Phe (Plasmodium falciparum, UniProt Q8I3X4, Y160F).
T1 construct: made in house; host or cells: Escherichia coli Top 10
T1 sequence (Q8I3X4 1-245 Y160F): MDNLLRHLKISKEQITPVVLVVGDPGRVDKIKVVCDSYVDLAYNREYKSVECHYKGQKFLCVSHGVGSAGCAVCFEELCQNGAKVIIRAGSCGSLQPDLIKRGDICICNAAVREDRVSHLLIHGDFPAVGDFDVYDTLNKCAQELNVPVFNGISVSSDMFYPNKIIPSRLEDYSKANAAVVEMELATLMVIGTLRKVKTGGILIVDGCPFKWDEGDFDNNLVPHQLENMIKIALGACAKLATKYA
On the procedure:
(§1) Kinetic assays were completed in 50 mM KH2PO4 at pH 7.4 measuring phosphorylysis of inosine or MTI by PNP in a coupled reaction with 60 milliunits/ml xanthine oxidase to convert hypoxanthine to uric acid. Formation of uric acid was measured at 293 nm wavelength (E293 = 12.9 mM^−1 cm^−1), [20]. In cases where activity for MTI was low, increased protein concentration (10 µg/ml) was used to check enzyme function. Assays were performed with excess substrate in the presence of inhibitors. Inhibition studies measured both initial (Ki) and slow onset inhibition (Ki*) for inhibitors. The initial onset inhibition was analyzed by using the following equation: ν ο = (k cat×S)/(K m(1+I/Ki)+S), ν ο is the steady state rate, k cat catalytic rate, S is substrate concentration, Km is Michealis constant for inosine, I is inhibitor concentration, and Ki is the equilibrium dissociation constant.

The target of another test is T2, PfPNP Val66Ile/Val73Ile (Plasmodium falciparum, UniProt Q8I3X4, V66I/V73I).
T2 construct: made in house; host or cells: Escherichia coli Top 10
T2 sequence (Q8I3X4 1-245 V66I/V73I): T1 sequence (Q8I3X4 1-245 Y160F) with V66I, V73I, F160Y
On the procedure:
as §1

The next test has as its target T3, PfPNP His7Phe (Plasmodium falciparum, UniProt Q8I3X4, H7F).
T3 construct: made in house; host or cells: Escherichia coli Top 10
T3 sequence (Q8I3X4 1-245 H7F): T1 sequence (Q8I3X4 1-245 Y160F) with H7F, F160Y
The method, then: as §1

Another test addresses T4, PfPNP Val66Ile/Tyr160Phe (Plasmodium falciparum, UniProt Q8I3X4, V66I/Y160F).
T4 construct: made in house; host or cells: Escherichia coli Top 10
T4 sequence (Q8I3X4 1-245 V66I/Y160F): T1 sequence (Q8I3X4 1-245 Y160F) with V66I
The method, then:
as §1

The next test deals with T5, PfPNP His7Ala (Plasmodium falciparum, UniProt Q8I3X4, H7A).
T5 construct: made in house; host or cells: Escherichia coli Top 10
T5 sequence (Q8I3X4 1-245 H7A): T1 sequence (Q8I3X4 1-245 Y160F) with H7A, F160Y
The method, then:
as §1

A further test addresses T6, PfPNP Tyr47Ala (Plasmodium falciparum, UniProt Q8I3X4, Y47A).
T6 construct: made in house; host or cells: Escherichia coli Top 10
T6 sequence (Q8I3X4 1-245 Y47A): T1 sequence (Q8I3X4 1-245 Y160F) with Y47A, F160Y
The method, then: as §1

The target of a further test is T7, PfPNP Val73Ile (Plasmodium falciparum, UniProt Q8I3X4, V73I).
T7 construct: made in house; host or cells: Escherichia coli Top 10
T7 sequence (Q8I3X4 1-245 V73I): T1 sequence (Q8I3X4 1-245 Y160F) with V73I, F160Y
The method, then:
as §1

The next test concerns the target T8, PfPNP Val73Ala (Plasmodium falciparum, UniProt Q8I3X4, V73A).
T8 construct: made in house; host or cells: Escherichia coli Top 10
T8 sequence (Q8I3X4 1-245 V73A): T1 sequence (Q8I3X4 1-245 Y160F) with V73A, F160Y
The method, then:
as §1

Take 5′-methylthioinosine: the Km at PfPNP Tyr160Phe amounted to 44 ± 5 µM; at PfPNP Val66Ile/Val73Ile, 15 ± 5 µM; on PfPNP His7Phe it was 9.6 ± 8 µM; on PfPNP Val66Ile/Tyr160Phe, 11 ± 2 µM; on PfPNP His7Ala, 2.6 ± 2 µM; at PfPNP Tyr47Ala, 960 µM. Besides, the values for the Michaelis-Menten constant (Km) on PfPNP Val73Ile and at PfPNP Val73Ala were 11 ± 8 µM and 20 ± 10 µM, respectively. Also, the catalytic constant (kcat) on PfPNP Tyr160Phe was 0.30 ± 0.04 s⁻¹; at PfPNP Val66Ile/Val73Ile, 0.91 ± 0.20 s⁻¹; at PfPNP His7Phe it was 0.21 ± 0.03 s⁻¹; on PfPNP Val66Ile/Tyr160Phe it was 0.05 ± 0.00 s⁻¹; at PfPNP His7Ala it was 0.29 ± 0.21 s⁻¹; at PfPNP Tyr47Ala it was 0.02 ± 0 s⁻¹. For the same compound, the kcat on PfPNP Val73Ile came out at 0.81 ± 0.03 s⁻¹; on PfPNP Val73Ala, 1.9 ± 0.3 s⁻¹.

Consider `OC[C@H]1O[C@@H](n2cnc3c(O)ncnc32)[C@H](O)[C@@H]1O` [Inosine, inosine], for which the “Ino/MTI kcat/Km Ratio” value at PfPNP Tyr160Phe amounted to 12; on PfPNP Val66Ile/Val73Ile, 2.7; on PfPNP His7Phe it was 0.3; at PfPNP Val66Ile/Tyr160Phe it was 39; on PfPNP His7Ala, 2.2; at PfPNP Tyr47Ala, 9.3. Further, the “Ino/MTI kcat/Km Ratio” value is given as 2.0 at PfPNP Val73Ile and 1.6 on PfPNP Val73Ala. For the same compound, the Km on PfPNP Tyr160Phe turned out to be 2.5 ± 1.2 µM; at PfPNP Val66Ile/Val73Ile, 28 ± 11 µM; on PfPNP His7Phe, 353 ± 22 µM; at PfPNP Val66Ile/Tyr160Phe, 6.2 ± 3.5 µM; at PfPNP His7Ala it was 45 ± 7 µM; at PfPNP Tyr47Ala, 200 µM. Further, the figures for the Km at PfPNP Val73Ile and at PfPNP Val73Ala were 13 ± 2 µM and 7 ± 4 µM, respectively. Further, the kcat on PfPNP Tyr160Phe is 0.21 ± 0.02 s⁻¹; on PfPNP Val66Ile/Val73Ile, 4.6 ± 0.6 s⁻¹; at PfPNP His7Phe, 2.2 ± 0.7 s⁻¹; on PfPNP Val66Ile/Tyr160Phe, 1.2 ± 0.16 s⁻¹; at PfPNP His7Ala, 1.1 ± 0.5 s⁻¹; at PfPNP Tyr47Ala it was 0.04 ± 0.00 s⁻¹. Besides, the kcat on PfPNP Val73Ile was 1.9 ± 0.7 s⁻¹; on PfPNP Val73Ala, 1.1 ± 0.1 s⁻¹.

What is called Km is the substrate concentration at which the rate is half of its maximum. The kcat is the number of substrate molecules converted per active site and unit of time at saturation.
